Laboratory results reported in patent US3954778A, “Aminoacetyl derivatives of 2,3-diphenyl cyclopropyl amine” (priority 1970, dated 1976).
Counter-ions that a name gives are not always drawn. Like-named read-outs stand apart in the source and are kept apart here.

How the values were obtained:
[1] = system: male albine Swiss mice; assay: Electroshock (M.E.S.); type: in vivo; settings: for ED50: Mus musculus
Procedure: (§1) Materials and methods. The animals used to perform the pharmacological tests with the compounds of the invention have been, unless the contrary is explicitly indicated, male albine Swiss mice weighing 19-23 g; each animal has been used only once.
(§2) The compounds have been administered as hydrochlorides, under skin (0.1 ml/10 g) 30 minutes ante; for determining the LD50, the compounds have been administered by intraperitoneal route and were considered deaths occured in the 72 hours following the treatment.
(§3) As reference compounds there was used: ethosuximide injected under skin 30 minutes ante (before); Phenurone per os 60 minutes ante; phenobarbital sodium salt under skin 30 minutes ante, trimethadione under skin 30 minutes ante; primidone per os 6 hours ante and Mephenesin under skin 30 minutes ante.
Electroshock (M.E.S.) -- The method adopted in making the electroshock is Cashin C.
(§4) The so-obtained data have been elaborated by calculating the ED50 and the LD50 according to Lichtfield-Wilcoxon's method (J. Pharmacol. 1949, 96, 99).

[2] = system: male albine Swiss mice; assay: Shock by cardiazol (M.M.S.); type: in vivo; settings: for ED50: Mus musculus
Procedure: as §1, §2, §3
Under such conditions the results obtained with the reference compounds are in good agreement with those reported in the art for the same compounds (E. A. Swinyard, W. C. Brown, L. S. Goodman --J. Pharmacol., 1952, 106, 3 19). Shock by cardiazol (M.M.S.) -- 38 mg/kg of cardiazol, in the form of a 0.38% aqueous solution, is quickly injected in the dorsal vein of the mouse's tail (L. S. Goodman, M. Singh Grewal, W. C. Brown, E. A. Swinyard -- J. Pharmacol. 1953, 108, 168). The animals are considered as protected when the extensor phase of the hind paws is eliminated during the tonic crisis.
as §4

[3] = system: dog; assay: Protection from adrenaline induced cardiac arrhythmias in dogs; type: in vivo; settings: 1 mg/kg intravenous
Procedure: (§5) The new compounds of the invention are deprived of MAO-inhibiting activity in live rats, both on the mithocondres of hepatic tissue and on the mithocondres of homogenatous of cerebral tissue, even if administered in doses of 100-200 mg/kg per os. As found also with other anticonvulsive drugs, the new compounds of the present invention are endowed with a good antiarrhythmic activity. In particular the activity in cardiac arrhythmias of N-pyrrolidinoacetyl-2,3-cis, trans-diphenylcyclopropylamine has been studied by experimentally inducing arrhythmias in rats by means of calcium chloride, and in dogs by means of adrenaline.
The experiments with dogs have been performed as follows:
The dog has been anesthetized with chloralose and then administered by intravenous injection with 30 γ/kg of adrenaline. The results were evaluated according to Somani and Lum B. K. B. (J. Pharmacol. Expt. Therap. 1965, 147, 194-202).

[4] = system: rat; assay: Inhibition of calcium chloride induced cardiac arrhythmias in rats; type: in vivo; settings: for minimal effective dose: read-out: active dose (complete inhibition of cardiac arrhythmias)
Procedure: as §5, with “As found also with other anticonvulsive drugs, the new compounds of the present invention are endowed with a good antiarrhythmic activity.” left out
The experiments in rats have been performed as follows:
There was determined the inhibiting effect of N-pyrrolidine acetyl-2,3-cis,trans-diphenylcyclopropylamine hydrochloride on the cardiac arrhythmias arising within the 5 minutes following the calcium chloride administration in comparison with quinidine, procaine and propranolol.

[5] = Acute toxicity LD50; settings: mouse, in vivo, ip
Procedure: as §1, §2, §4

[6] = sc, 0.5 h, new compounds (Table 2), as hydrochlorides, under skin 30 minutes ante, read-out: ED50 M.E.S.
[7] = sc, 0.5 h, new compounds (Table 2), as hydrochlorides, under skin 30 minutes ante, cardiazol 38 mg/kg i.v., read-out: ED50 M.M.S.
[8] = sc, 0.5 h, reference compounds (Table 1), under skin 30 minutes ante, cardiazol 38 mg/kg i.v., read-out: M.M.S. ED50
[9] = sc, 0.5 h, read-out: M.M.S. ED50

1.1-dimethyl-3-phenyl-urea [Phenurone, reference compound]
M.E.S. ED50 ([1]; Phenurone (Table 1), per os 60 minutes ante): 115 mg/kg | M.M.S. ED50 ([2]; Phenurone (Table 1), per os 60 minutes ante, cardiazol 38 mg/kg i.v.): 50 mg/kg

CC(C)N(CC(=O)NC1[C@H](c2ccccc2)[C@H]1c1ccccc1)C(C)C (relative stereo) [N-diisopropylaminoacetyl-2,3-cis,trans-diphenylcyclopropylamine]
ED50 [1, 6]: 135 mg/kg | ED50 [2, 7]: 87 mg/kg

O=C(CN1CCCC1)NC1[C@H](c2ccccc2)[C@H]1c1ccccc1 (relative stereo) [N-pyrrolidinoacetyl-2,3-cis,trans-diphenylcyclopropylamine hydrochloride]
protection from adrenaline arrhythmia ([3]; 2 minutes ante adrenaline (30 γ/kg i.v.)): completely protected | duration of effect ([3]; adrenaline arrhythmia): 60 min | minimal effective dose ([4]; calcium chloride 80 mg/kg i.v., anesthetized rat, drug 90 seconds before calcium chloride): 2 mg/kg | duration of activity ([4]; rat, calcium chloride arrhythmia, dose 2 mg/kg): about 20 minutes

O=C(CN1CCCCC1)NC1[C@H](c2ccccc2)[C@H]1c1ccccc1 (relative stereo) [cis-trans, N-piperidinoacetyl-2,3-cis,trans-diphenylcyclopropylamine hydrochloride]
LD50 at 72 h [5]: 88 mg/kg | ED50 [1, 6]: 14.5 mg/kg | ED50 [2, 7]: 6 mg/kg

O=C(CN1CCCC1)NC1[C@H](c2ccccc2)[C@H]1c1ccccc1 (relative stereo) [cis-trans, N-pyrrolidinoacetyl-2,3-cis,trans-diphenylcyclopropylamine]
LD50 at 72 h [5]: 67.5 mg/kg | ED50 [1, 6]: 9 mg/kg | ED50 [2, 7]: 5.6 mg/kg

CCN(CC)CC(=O)NC1[C@H](c2ccccc2)[C@H]1c1ccccc1 (relative stereo) [cis-trans, R1 = C2 H5, R2 = C2 H5, N-dietylaminoacetyl-2,3-cis-trans-diphenylcyclopropylamine]
LD50 at 72 h [5]: 92.5 mg/kg | ED50 [1, 6]: 14.2 mg/kg | ED50 [2, 7]: 12.5 mg/kg

CN(C)CC(=O)NC1[C@H](c2ccccc2)[C@H]1c1ccccc1 (relative stereo) [cis-trans, R1 = CH3, R2 = CH3, N-dimethylaminoacetyl-2,3-cis,trans-diphenylcyclopropylamine]
ED50 [1, 6]: 16.5 mg/kg | ED50 [2, 7]: 16 mg/kg

CCNCC(=O)NC1[C@H](c2ccccc2)[C@H]1c1ccccc1 (relative stereo) [cis-trans, R1 = H, R2 = C2 H5, N-ethylaminoacetyl-2,3-cis,trans-diphenylcyclopropylamine hydrochloride]
LD50 at 72 h [5]: 85 mg/kg | ED50 [1, 6]: 16.5 mg/kg | ED50 [2, 7]: 13 mg/kg

CNCC(=O)NC1[C@H](c2ccccc2)[C@H]1c1ccccc1 (relative stereo) [cis-trans, R1 = H, R2 = CH3, N-methylaminoacetyl-2,3-cis,trans-diphenyl-cylcopropylamine hydrochloride]
LD50 at 72 h [5]: 112 mg/kg | ED50 [1, 6]: 25.5 mg/kg | ED50 [2, 7]: 30 mg/kg

CCCN(CCC)CC(=O)NC1[C@H](c2ccccc2)[C@H]1c1ccccc1 (relative stereo) [cis-trans, R1 = n-C3 H7, R2 = n-C3 H7, di-n-propylaminoacetyl-2,3-cis, trans-diphenylcyclopropylamine hydrochloride]
ED50 [1, 6]: > 100 mg/kg | ED50 [2, 7]: 175 mg/kg

CCCCN(CCCC)CC(=O)NC1[C@H](c2ccccc2)[C@H]1c1ccccc1 (relative stereo) [cis-trans, R1 = n-C4 H9, R2 = n-C4 H9, N-di-n-butylaminoacetyl-2,3-cis,trans-diphenylcyclopropylamine]
ED50 [1, 6]: > 250 mg/kg | ED50 [2, 7]: > 250 mg/kg

CCC1(C)CC(=O)NC1=O (stereo not drawn) [Ethosuximide, reference compound]
ED50 [2, 8]: 50 mg/kg

Cc1ccccc1OCC(O)CO (stereo not drawn) [Mephenesin, reference compound]
ED50 [2, 8]: 180 mg/kg

O=C1NC(=O)C(c2ccccc2)(c2ccccc2)N1 [Phenitoine Sodium salt, reference compound]
ED50 ([1]; Phenitoine sodium salt (Table 1), route and time not stated, read-out: M.E.S. ED50): 15 mg/kg | ED50 ([2]; iv, Phenitoine sodium salt (Table 1), route and time not stated, cardiazol 38 mg/kg i.v., read-out: M.M.S. ED50): 7.1 mg/kg

CCC1(c2ccccc2)C(=O)NC(=O)NC1=O [Phenobarbital sodium salt, reference compound]
ED50 ([1]; sc, 0.5 h, read-out: M.E.S. ED50): 35 mg/kg | ED50 [2, 9]: 4.5 mg/kg

CCC1(c2ccccc2)C(=O)NCNC1=O [Primidone, reference compound]
ED50 ([2]; po, Primidone (Table 1), per os 6 hours ante, cardiazol 38 mg/kg i.v., read-out: M.M.S. ED50): 5.2 mg/kg

CN1C(=O)OC(C)(C)C1=O [Trimethadione, reference compound]
ED50 [2, 9]: 175 mg/kg

CCN(CC)CCOC(=O)c1ccc(N)cc1 [procaine]
minimal effective dose ([4]; Rattus norvegicus): 5 mg/kg

CC(C)NCC(O)COc1cccc2ccccc12 (stereo not drawn) [propranolol]
minimal effective dose ([4]; Rattus norvegicus): 1 mg/kg

C=C[C@H]1C[N@@]2CC[C@H]1C[C@@H]2[C@@H](O)c1ccnc2ccc(OC)cc12 [quinidine]
minimal effective dose ([4]; Rattus norvegicus): 2.5 mg/kg

O=C(CN1CCCC1)N[C@@H]1[C@@H](c2ccccc2)[C@H]1c1ccccc1 [trans-trans, N-pyrrolidinoacetyl-2,3-trans,trans-diphenylcyclopropylamine hydrochloride]
LD50 at 72 h [5]: 266 mg/kg | ED50 [1, 6]: 87 mg/kg
